# From a melting point compilation (Tetko et al.; mined from patent text by program, amines drawn as free bases though some values may be those of a salt)
# Residues, ends and D or L forms follow the SMILES beside them. *: point of attachment. Cbz = O=C(OCc1ccccc1)*
row,Structure (SMILES),melting point [°C]
1,O=C(O)CCc1cc(-c2ccc(Cl)cc2)n(-c2ccccc2)n1,138 to 139
2,O=C(C=Cc1cccc(S(=O)(=O)Nc2ccc3ccccc3c2)c1)NO,164
3,COc1ccc(C(=O)C2=C(O)C(=O)N(c3ccc(C)nn3)C2c2ccc(OC(F)(F)F)cc2)cn1 (stereo unspecified),250 to 251
4,CCOc1ccc(-c2nc(-c3cc(C(=O)O)c(O)cc3O)cs2)cc1OCC,233 to 234
5,COCCc1sc(C(C)(O)c2nc(C)c(CCOC)s2)nc1C,50 to 51
6,C=Cc1cn(-c2c(Cl)cc(C(F)(F)F)cc2Cl)cc1C#N,55 to 60
7,OC1CCNC(Cc2ccccc2)C1 (stereo unspecified),114
8,O=C(OCc1ccc(OCCCc2ccc(Cl)cc2)cc1)c1cccnc1,67 to 68
9,CCCc1nn(-c2ccc(C(F)(F)F)cn2)cc1CCCOc1ccc(CCC(=O)O)cc1,118 to 119
10,CCCN(CCC)C(=O)n1cnc(S(=O)(=O)C(C)C)n1,61
11,CCN1CCCC1CNC(=O)c1c(Br)c(Br)c([N+](=O)[O-])c2c1OCCO2 (stereo unspecified),213
12,COc1ccc(C(=CC(=O)N2CCOCC2)c2ccc(Oc3nc(Cl)nc(Cl)n3)cc2)cc1OC,90 to 100
13,O=C(O)CCNC1CCCN(c2ccc3c(C(=O)NCC45CC6CC(CC(C6)C4)C5)c(Cl)ccc3n2)C1 (stereo unspecified),176 to 189
14,C1=Cn2cnnc2C(c2ccccc2)c2ccccc21 (stereo unspecified),217 to 218
15,Cc1cc(C(N)C(=O)O)ccc1O (stereo unspecified),205 to 207
16,COC(=O)C=CC(=O)Nc1ccc(Cl)cc1C(=O)NC(C)C1CC1 (stereo unspecified),131
17,CCOc1cc(Cc2cnc(N)nc2N)cc2c1OC(C)(C)C=C2,184 to 186
18,COc1ccnc(N2CCN(C(=S)c3ccccc3)CC2)n1,125 to 129
19,O=c1[nH]c(=Cc2ccc(OCc3ccccc3)cn2)c(=O)[nH]c1=Cc1ccc([N+](=O)[O-])cc1,> 300
20,Cc1cc(COc2nn(Cc3ccccc3)cc2CO)ccc1OCc1nc(-c2ccco2)oc1C,91 to 92
21,O=C(CN1CCOCC1)Nc1cccc2c1C(=O)c1c-2n[nH]c1-c1ccc(N2CCOCC2)cc1,258
22,Fc1ccc(C2OC3(CCN(Cc4ccccc4)CC3)N3CCCCC23)cc1 (stereo unspecified),158 to 159

row,Structure (SMILES),melting point [°C]
1,CCNc1c(O)ccc(N(CCO)CCO)c1[N+](=O)[O-],115
2,CCOc1ccc2[nH]c(=O)n(-c3ccccn3)c2c1,205
3,COc1cccc(-c2cc3cnc(N)nc3nc2NC(=O)NC(C)(C)C)c1,275 to 280
4,O=[N+]([O-])c1cccc(O)c1O,82 to 85
5,CCCCCCCCCCC(Oc1ccc(C2=CCCCCCC2)cc1)C(=O)O (stereo unspecified),45 to 48
6,Cc1c(C(=O)Nc2ccc(N3CCC(N4CCCCC4)CC3)c(C#N)c2)cnn1-c1ccc(F)cc1,237 to 238
7,CCCC(=O)c1cccc2cc[nH]c12,67.2 to 68.2
8,O=C(O)Cc1c(C(=O)c2cccc(Cl)c2)[nH]c2cc(Cl)ccc12,199 to 201
9,CCc1cc2c(ccc(=O)n2Cc2ccc(-c3ccccc3C(=O)O)cc2)c(CC)n1,238 to 240
10,C[C@]12CC(I)C(=O)C=C1CC[C@@H]1[C@@H]2CC[C@]2(C)C(=O)CC[C@@H]12 (stereo partly specified),92
11,"O=C(c1ccccc1)N1CCOC(CCOS(=O)(=O)c2ccccc2)(c2ccc(F)c(F)c2)C1 (single isomer, unassigned; (+))",82.8
12,O=C(O)CCC/C=C\[C@@H]1C[C@@H](NS(=O)(=O)c2ccc(Cl)cc2)CN1Cc1ccccc1,87 to 91
13,CS(=O)(=O)NCCCn1c(CCCOc2ccccc2)nc2c(N)nc3ccccc3c21,176 to 178
14,Nc1cnc(-c2ccc(Br)cc2)c(Cl)n1,254 to 256
15,COc1ccc(C(=O)Nc2ccccc2)cc1NCc1ccc(O)cc1,188 to 190
16,CCOC(=O)c1cn(N=C(C)C)c2c(F)c(F)c(F)cc2c1=O,166
17,COc1cc2c3c(nc4ccccc4c3c1)-c1ccccc1N2C,214 to 216
18,O=C(O)c1cccc(NC(=O)C(CS)CCCc2ccccc2)c1 (stereo unspecified),134 to 136
19,CC=Cn1c(C(F)(F)F)nn(-c2c([N+](=O)[O-])cc(C(F)(F)F)cc2[N+](=O)[O-])c1=O,136
20,COCCOc1ccc(CCCNS(=O)(=O)CCCc2ccccc2)c(Oc2ncc(C(F)(F)F)cc2Cl)c1,102
21,CCOC(=O)c1ccc(NCCCCCCCCCCC[Si](C)(C)C)cc1,66 to 68
22,CC(=O)N1CCC(C(=O)N[C@@H](CC(C)C)C(=O)N[C@@H](C(C)C)[C@@H](O)c2c(-c3ccccc3)c2=O)CC1,120 to 124

row,Structure (SMILES),melting point [°C]
1,CCCCCCCCCCCCCCCCS(=O)(=O)Nc1cccc(C(C)=O)c1,95.5 to 100
2,CC(=O)N(Nc1ccc(Cl)cc1F)c1c(C#N)cnc2cc(O)ccc12,182 to 191
3,CCOC(=O)CCCSc1ncnc2c(O)n(C)nc12,160 to 161
4,O=C(O)CCCC(=O)Nc1cccc(-c2nnc(-c3ccc(C(F)(F)F)cc3)nn2)c1,246 to 248
5,CCOCCOc1ccc(C(=O)Oc2ccc(C#N)c(F)c2)cc1,62.4 to 63.2
6,COC(=O)C1CN(C(=O)OC(C)(C)C)CCN1C(=O)/C=C/c1ccc(Sc2ccc3c(c2)OCCO3)c(C(F)(F)F)c1 (stereo unspecified),85 to 87
7,CCN1CCN(CCN2CC[C@H](NC(=O)c3cc(Cl)c(N)cc3OC)[C@H](OC)C2)C1=O (relative stereo),153
8,O=C(O)Cn1c(-c2cccc(Br)c2)nc2cccnc21,247 to 249
9,Nc1ccc(C=CC=CC=CC=Cc2ccc(N)cc2)cc1,262 to 264
10,N#Cc1ncc(OC2SCC(O)C(O)C2O)cc1F (stereo unspecified),155 to 156
11,Fc1ccccc1-c1c(OCc2nc3n(n2)CCCC3)nn2c(-c3ccccc3F)nncc12,150 to 152
12,CCS(=O)(=O)Nc1cc(-c2nc[nH]c(=O)c2Cl)c(F)cc1C#N,249 to 252
13,CCCC[C@H](NC(=O)[C@H](CC(C)C)NC(=O)c1cc(F)ccc1F)C(=O)CSCc1ccco1,102
14,COc1ccc(C2=NN(c3cnc4ccccc4n3)C(=O)[C@H]3CC=CC[C@@H]23)cc1OC (relative stereo),154 to 156
15,Cc1ccc(=NS(=O)(=O)C(F)(F)F)n(-c2cccc(C(F)(F)F)c2)c1,206
16,COc1cc(C(C)=O)ccc1OCCN1C2CCC1CC(c1n[nH]c3cc(F)ccc13)C2 (stereo unspecified),151 to 152
17,Cc1nn(-c2ccsc2)c(=O)cc1-c1ccc(OC2CCN(C3CCC3)CC2)cc1,277 to 279
18,OCc1cn2c(n1)CN=C(c1ccccn1)c1cc(I)ccc1-2,206 to 207
19,CC1(C)OC(c2ccc(S(C)(=O)=O)c(F)c2)=C(c2ccc(N)cc2)C1=O,199 to 200
20,CCNC(=O)C(C)NC(=O)C(C)NC(=O)C1CCCN1C(=O)OCc1ccccc1 (stereo not drawn) (Cbz-Pro-Ala-Ala-NHEt; configuration not given here),219 to 220
21,O=CN(O)C(CN1CCOCC1)CS(=O)(=O)c1ccccc1Oc1ccc(OC(F)(F)F)cc1 (stereo unspecified),161 to 163
22,O=C(CNC(=O)C(Cc1ccccc1)CP(=O)(O)O)OCc1ccccc1 (stereo unspecified),250
